Consider four molecules from patent US20100210584A1, “LIQUID OR PASTE COMPOSITIONS INTENDED TO PROVIDE ELEMENTS ESSENTIAL FOR THE SYNTHESIS AND FORMATION OF PROTEOGLYCANS, IN PARTICULAR, FOR THE TREATMENT OF CARTILAGE DEGRADATION” (priority 2007, published 2010).

Read-outs that look alike come from different tables or passages of the source.

For series [1] the following is noted: placebo-controlled; cited from earlier work.
For series [2] the following is noted: beyond a pH of 7.0; cited from earlier work.
The conditions of series [3]: taken orally; cited from earlier work.
For series [4] the following is noted: cited from earlier work.
For series [5] the following is noted: cited from earlier work. This is another data set of the same source.
The test system of series [6] is arthritic knee joint. The conditions noted are these: three to five injections at one-week intervals, on average; cited from earlier work.
For series [7] the following is noted: humans, dependent on the molecular weight; cited from earlier work.
The conditions of series [8]: 800 to 1200 mg/day; cited from earlier work.
For series [9] the following is noted: animals, labeled chondroitin; cited from earlier work.
Series [10] in a line: Coloring (Maillard reaction) of aqueous solutions on storage. The note with it: 6.0% in water by total weight of the composition. In kind it is physicochemical. On the procedure:
At the chemical level, glucosamine, which can be of either natural or synthetic origin, is a glucose molecule to which an amino grouping has bonded. Consequently, in water without the addition of sugar, this molecule automatically leads to the appearance of a brown color of the solution by the condensation reaction of the different glucosamine molecules together. This appears clearly in an aqueous 7.5% glucosamine solution. After 8 months at 40° C., the solution takes on a caramel hue.
Three solutions have been produced, each containing 7.5% glucosamine by weight with respect to the total weight of the composition and 6.0% chondroitin sulfate by weight with respect to the total weight of the composition. In two solutions, anhydrous citric acid was added before the introduction of chondroitin sulfate. One of the solutions was heated at 100° C. for 10 minutes.

In the case of `CC(=O)Oc1cccc2c1C(=O)c1c(OC(C)=O)cc(C(=O)O)cc1C2=O` [Diacerein], the articular joint space result in series [1] is recorded as “significant decrease in the articular joint space”.
In the case of `N[C@H]1C(O)O[C@H](CO)[C@@H](O)[C@@H]1O` (stereo partly shown) [glucosamine], the degradation entry in series [2] was “degrades rapidly”. In addition, in series [3], the absorption is recorded as approximately 90% and the “time until maximum concentration is reached” value is 8 h. Further, the “efficacy on joint pain and swelling compared with ibuprofen” value in series [4] (beginning in the second week of treatment) was “more effective than ibuprofen”. For the same molecule, the articular joint space result in series [4] (in vivo) is reported as “preserves the articular joint space”. Further, the “solubility in water and in an alcohol medium” value in series [5] was “highly soluble”.
Take hyaluronic acid: the duration of efficacy in [6] is on record as 8-9 months.
On to chondroitin sulfate, for which the absorption entry in [7] is given as “around 15%”. In series [8], the Lequesne index entry is “improves the Lequesne index”, the articular joint space entry is on record as “preserves the articular joint space”, the mobility entry is “improves mobility” and the pain entry is “reduces pain”. Further, in series [9], the absorption entry was “more than 66%”. In addition, in series [10], the “intensity of coloring compared with a pure 7.5% glucosamine solution” value is listed as “ten times less intense”. Moreover, the solubility in alcohols result in [5] (ethanol, propanol-1 and isopropanol) is reported as “insoluble”.
